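Results reflect a 48-hour exposure of cells in 96-well plates to compound at five concentrations. Abbreviation: GI50, concentration required for 50% inhibition of growth.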 Active and inactive are the calls of the source. Cut-off read from the data, not from the text of the source: active = GI50 up to about 1.1 µM and inactive = higher.
Tests used:
Assay in all cases: inhibition of tumour cell growth, NCI panel, 48 h
A498 = test system: A498
A549 = test system: A549
ACHN = test system: ACHN
DU-145 = test system: DU-145
EKVX = test system: EKVX
HCT-116 = test system: HCT-116
HT-29 = test system: HT-29
K562 = test system: K562
MOLT-4 = test system: MOLT-4
OVCAR-3 = test system: OVCAR-3
OVCAR-5 = test system: OVCAR-5
OVCAR-8 = test system: OVCAR-8
SF-268 = test system: SF-268
SF-295 = test system: SF-295
SF-539 = test system: SF-539
SNB-75 = test system: SNB-75
UACC-257 = test system: UACC-257
UACC-62 = test system: UACC-62
UO-31 = test system: UO-31
786-0 = test system: 786-0

SMILES | GI50 (A498) | GI50 (A549) | GI50 (ACHN) | GI50 (DU-145) | GI50 (EKVX) | GI50 (HCT-116) | GI50 (HT-29) | GI50 (K562) | GI50 (MOLT-4) | GI50 (OVCAR-3) | GI50 (OVCAR-5) | GI50 (OVCAR-8) | GI50 (SF-268) | GI50 (SF-295) | GI50 (SF-539) | GI50 (SNB-75) | GI50 (UACC-257) | GI50 (UACC-62) | GI50 (UO-31) | GI50 (786-0)
Fc1c(F)c(F)c(CSc2nc3ccccc3[nH]2)c(F)c1F | > 100 µM (inactive) | > 100 µM (inactive) | > 100 µM (inactive) | > 100 µM (inactive) | > 100 µM (inactive) | > 100 µM (inactive) | > 100 µM (inactive) | > 100 µM (inactive) | > 100 µM (inactive) | > 100 µM (inactive) | > 100 µM (inactive) | > 100 µM (inactive) | > 100 µM (inactive) | > 100 µM (inactive) | > 100 µM (inactive) | > 100 µM (inactive) | > 100 µM (inactive) | > 100 µM (inactive) | > 100 µM (inactive) | 
COc1ccc([C@H]2C=[N+]([O-])O[C@H](OC3CCCC3)[C@@H]2OC(C)=O)cc1OC | > 100 µM (inactive) | 29.4 µM (inactive) | 22.2 µM (inactive) | 29.3 µM (inactive) | 22.3 µM (inactive) |  | 20.7 µM (inactive) | 39.3 µM (inactive) | 32.6 µM (inactive) | 26 µM (inactive) |  | 20.7 µM (inactive) | 33.7 µM (inactive) | > 100 µM (inactive) | 16.4 µM (inactive) | 28.4 µM (inactive) | 19.7 µM (inactive) | 22.8 µM (inactive) | 18.7 µM (inactive) | 
CCOC(=O)c1csc(NC(=O)CCCC#N)n1 | > 100 µM (inactive) | > 100 µM (inactive) | > 100 µM (inactive) | > 100 µM (inactive) |  |  | > 100 µM (inactive) | > 100 µM (inactive) | > 100 µM (inactive) | > 100 µM (inactive) | > 100 µM (inactive) | > 100 µM (inactive) |  | > 100 µM (inactive) | > 100 µM (inactive) | > 100 µM (inactive) | > 100 µM (inactive) | > 100 µM (inactive) | > 100 µM (inactive) | 
CO/C(=N/N1CC1C(F)(F)F)c1ccncc1 (stereo unspecified) | > 100 µM (inactive) |  |  | > 100 µM (inactive) |  | > 100 µM (inactive) | > 100 µM (inactive) | > 100 µM (inactive) | 30.8 µM (inactive) | > 100 µM (inactive) | > 100 µM (inactive) | > 100 µM (inactive) |  | > 100 µM (inactive) |  | > 100 µM (inactive) |  | > 100 µM (inactive) | 46.8 µM (inactive) | 
CC(NC(=O)Cc1ccccc1)NC(=O)C(C)C(=O)NCc1ccccc1 (stereo unspecified) |  | > 100 µM (inactive) | 52.2 µM (inactive) | > 100 µM (inactive) | > 100 µM (inactive) | > 100 µM (inactive) | > 100 µM (inactive) | > 100 µM (inactive) | > 100 µM (inactive) |  | > 100 µM (inactive) | 32.4 µM (inactive) | 33.3 µM (inactive) | 21.7 µM (inactive) | 82.4 µM (inactive) | 38.8 µM (inactive) | > 100 µM (inactive) | > 100 µM (inactive) | 42.6 µM (inactive) | > 100 µM (inactive)
CC1(C)C2CCC3(OCCO3)C1C(O)C2 (stereo unspecified) | > 100 µM (inactive) | > 100 µM (inactive) | > 100 µM (inactive) |  | > 100 µM (inactive) | > 100 µM (inactive) | > 100 µM (inactive) | > 100 µM (inactive) | > 100 µM (inactive) | > 100 µM (inactive) | > 100 µM (inactive) | > 100 µM (inactive) | > 100 µM (inactive) | > 100 µM (inactive) | > 100 µM (inactive) | > 100 µM (inactive) | > 100 µM (inactive) | > 100 µM (inactive) | > 100 µM (inactive) | > 100 µM (inactive)
O=C(NNC(=S)NCc1ccccc1)C12CC3CC(CC(C3)C1)C2 | > 100 µM (inactive) |  | 54.7 µM (inactive) | 85.9 µM (inactive) |  | 34.5 µM (inactive) | 45.3 µM (inactive) | 55.5 µM (inactive) | 19.1 µM (inactive) | 54.6 µM (inactive) | > 100 µM (inactive) | > 100 µM (inactive) | 58.9 µM (inactive) | 34.4 µM (inactive) | > 100 µM (inactive) | 49.4 µM (inactive) | 52.5 µM (inactive) | 66.7 µM (inactive) | 50.1 µM (inactive) | 96.8 µM (inactive)
COc1ccc(N2C(=O)C3C=CC(n4[nH]c(=O)n(Cc5ccccc5)c4=O)CC3C2=O)cc1 (stereo unspecified) | 86.7 µM (inactive) | > 100 µM (inactive) | > 100 µM (inactive) |  | > 100 µM (inactive) | > 100 µM (inactive) | > 100 µM (inactive) | > 100 µM (inactive) | > 100 µM (inactive) | > 100 µM (inactive) | > 100 µM (inactive) | > 100 µM (inactive) | > 100 µM (inactive) | > 100 µM (inactive) | > 100 µM (inactive) | > 100 µM (inactive) | > 100 µM (inactive) | > 100 µM (inactive) | > 100 µM (inactive) | > 100 µM (inactive)
CCOC(=O)CC(NC(=O)c1ccc(/N=N/N(C)C)cc1)C(=O)OCC (stereo unspecified) | > 100 µM (inactive) | > 100 µM (inactive) | > 100 µM (inactive) |  | > 100 µM (inactive) | > 100 µM (inactive) | > 100 µM (inactive) | > 100 µM (inactive) | > 100 µM (inactive) | > 100 µM (inactive) | > 100 µM (inactive) | > 100 µM (inactive) | > 100 µM (inactive) | > 100 µM (inactive) | > 100 µM (inactive) | 91.8 µM (inactive) | > 100 µM (inactive) | 63.4 µM (inactive) | > 100 µM (inactive) | > 100 µM (inactive)
CCN(CC)CCN(C(=O)C(C)(C)C)c1ccccc1N |  | > 100 µM (inactive) | > 100 µM (inactive) | > 100 µM (inactive) | > 100 µM (inactive) | > 100 µM (inactive) | > 100 µM (inactive) | > 100 µM (inactive) | > 100 µM (inactive) | > 100 µM (inactive) | > 100 µM (inactive) | > 100 µM (inactive) | > 100 µM (inactive) | > 100 µM (inactive) | > 100 µM (inactive) | > 100 µM (inactive) | > 100 µM (inactive) | > 100 µM (inactive) | > 100 µM (inactive) | > 100 µM (inactive)
Cc1c(Cl)cccc1NC(=O)/C=C/c1ccccc1 | > 100 µM (inactive) | > 100 µM (inactive) | 89.5 µM (inactive) | > 100 µM (inactive) | 55.8 µM (inactive) | > 100 µM (inactive) | > 100 µM (inactive) | > 100 µM (inactive) | > 100 µM (inactive) | > 100 µM (inactive) | > 100 µM (inactive) | 38 µM (inactive) | 74.1 µM (inactive) | > 100 µM (inactive) | 43 µM (inactive) | 22.8 µM (inactive) | > 100 µM (inactive) | > 100 µM (inactive) |  | 62.7 µM (inactive)
COc1ccc2c(C)cc(N/N=C/c3sccc3C)nc2c1 |  | 13.3 µM (inactive) | 21.7 µM (inactive) | 6.68 µM (inactive) | > 10 µM (inactive) | 4.08 µM (inactive) | 2.81 µM (inactive) |  | 13.5 µM (inactive) | 2.99 µM (inactive) | 13.5 µM (inactive) | 13.4 µM (inactive) | 17.4 µM (inactive) | 14.7 µM (inactive) | 14.3 µM (inactive) | 12.1 µM (inactive) | 10.1 µM (inactive) | 15.9 µM (inactive) | 17.1 µM (inactive) | 
CO[C@@H]1O[C@H](C(=O)c2ccccc2)[C@H]2OC(C)(C)O[C@@H]12 | > 100 µM (inactive) |  |  | 54.5 µM (inactive) | 86.5 µM (inactive) | 75.3 µM (inactive) |  | > 100 µM (inactive) | > 100 µM (inactive) | > 100 µM (inactive) | > 100 µM (inactive) | > 100 µM (inactive) | > 100 µM (inactive) | > 100 µM (inactive) | > 100 µM (inactive) | 96.8 µM (inactive) | > 100 µM (inactive) | > 100 µM (inactive) | > 100 µM (inactive) | > 100 µM (inactive)
Clc1ccc2c(c1)CC1C[N+]3=C(CCCCC3)C1=C2 (stereo unspecified) | 18.3 µM (inactive) | 30.3 µM (inactive) | > 100 µM (inactive) | > 100 µM (inactive) | 45.6 µM (inactive) | > 100 µM (inactive) | 37.8 µM (inactive) | > 100 µM (inactive) | > 100 µM (inactive) | 59 µM (inactive) | > 100 µM (inactive) | 28.3 µM (inactive) | 50.8 µM (inactive) | 64.1 µM (inactive) |  | 0.349 µM (active) | 28.8 µM (inactive) | > 100 µM (inactive) | > 100 µM (inactive) | > 100 µM (inactive)
O=c1[nH]c(Nc2cccc(C(F)(F)F)c2)nc2[nH]cnc12 |  | > 100 µM (inactive) | > 100 µM (inactive) | > 100 µM (inactive) | > 100 µM (inactive) | 80 µM (inactive) | 77.1 µM (inactive) | > 100 µM (inactive) | > 100 µM (inactive) | > 100 µM (inactive) | > 100 µM (inactive) | > 100 µM (inactive) | > 100 µM (inactive) | > 100 µM (inactive) | > 100 µM (inactive) | 71.1 µM (inactive) | > 100 µM (inactive) |  |  | > 100 µM (inactive)
